Test results from ChEMBL document CHEMBL1146967, “The geminal dimethyl analogue of Flurbiprofen as a novel Abeta42 inhibitor and potential Alzheimer's disease modifying agent” (Bioorg Med Chem Lett, 2006).
Calls of active or inactive are those of the source. The calls are words filed in the database; no cut-off is given here.

Tests used:
[1] = system: HEK293; assay: Inhibition of beta amyloid protein 40 in HEK cell lines overexpressing APP695; format: functional, cell-based; details: Homo sapiens
[2] = Inhibition of beta amyloid protein 42 in HEK cell lines overexpressing APP695 at 100 uM; format: functional; details: Homo sapiens, HEK293
[3] = Ratio of drug level in brain against plasma in mice at 50 mg/kg, po; format: ADME, organism-based; design: dose 50 mg/kg, route oral; details: mouse, brain and plasma, read-out: BBR
[4] = target: T1, Gamma-secretase (Homo sapiens) (UniProt Q96BI3+Q9NZ42+Q8WW43+P49768+Q92542+P49810); assay: Inhibition of beta amyloid protein 42 in SH-SY5Y cell lines overexpressing SPA4CT at 600 uM; format: functional, cell-based
[5] = system: Mus musculus; assay: Decrease in beta amyloid protein 40 level in Tg2576 transgenic mouse at 21 mg/kg relative to control; format: functional; design: scale not given: the % may be the effect or the level left
[6] = system: Mus musculus; assay: Decrease in beta amyloid protein 42 level in Tg2576 transgenic mouse at 21 mg/kg relative to control; format: functional; design: scale not given: the % may be the effect or the level left
[7] = system: Mus musculus; assay: Drug level in mouse brain at 50 mg/kg, po; format: ADME, organism-based; design: dose 50 mg/kg, route oral; details: in vivo, read-out: Drug uptake
[8] = system: Mus musculus; assay: Drug level in mouse plasma at 50 mg/kg, po; format: ADME, organism-based; design: dose 50 mg/kg, route oral; details: in vivo, read-out: Drug uptake
[9] = target: T1, Gamma-secretase (Homo sapiens); details: SH-SY5Y, 300 uM
Description: Inhibition of beta amyloid protein 42 in SH-SY5Y cell lines overexpressing SPA4CT at 300 uM

[10] = target: T1, Gamma-secretase (Homo sapiens); assay: Inhibition of beta amyloid protein 42 in SH-SY5Y cell lines overexpressing SPA4CT at 100 uM; format: functional, cell-based
[11] = Inhibition of beta amyloid protein 42 in HEK cell lines overexpressing APP695 at 40 uM; format: functional; details: Homo sapiens, HEK293
[12] = target: T1, Gamma-secretase (Homo sapiens); assay: Inhibition of beta amyloid protein 42 in SH-SY5Y cell lines overexpressing SPA4CT at 30 uM; format: functional, cell-based
[13] = Half life in rat at 2 mg/kg, iv; format: ADME, organism-based; design: dose 2 mg/kg, route intravenous; details: in vivo
[14] = Volume of distribution in rat at 2 mg/kg, iv; format: ADME, organism-based; design: dose 2 mg/kg, route intravenous; details: in vivo, read-out: Vdss
[15] = Cmax in monkey at 2 mg/kg, po; format: ADME, organism-based, Macaca mulatta; design: dose 2 mg/kg, route oral; details: rhesus monkey, in vivo
[16] = Clearance in mouse at 2 mg/kg, iv; format: ADME, organism-based; design: dose 2 mg/kg, route intravenous; details: in vivo
[17] = Oral bioavailability in monkey at 2 mg/kg, po; format: ADME, organism-based, Macaca mulatta; details: rhesus monkey, in vivo
[18] = target: T1, Gamma-secretase (Homo sapiens); assay: Inhibition of NOTCH receptor cleavage at 200 uM; format: functional
[19] = Half life in mouse at 2 mg/kg, iv; format: ADME, organism-based; design: dose 2 mg/kg, route intravenous; details: in vivo
[20] = Half life in monkey at 2 mg/kg, iv; format: ADME, organism-based, Macaca mulatta; design: dose 2 mg/kg, route intravenous; details: rhesus monkey, in vivo
[21] = Volume of distribution in mouse at 2 mg/kg, iv; format: ADME, organism-based; design: dose 2 mg/kg, route intravenous; details: in vivo, read-out: Vdss
[22] = Half life in dog at 2 mg/kg, iv; format: ADME, organism-based, Canis lupus familiaris; design: dose 2 mg/kg, route intravenous; details: in vivo
[23] = Tmax in dog at 2 mg/kg, po; format: ADME, organism-based, Canis lupus familiaris; design: dose 2 mg/kg, route oral; details: in vivo
[24] = Clearance in dog at 2 mg/kg, iv; format: ADME, organism-based, Canis lupus familiaris; design: dose 2 mg/kg, route intravenous; details: in vivo
[25] = Cmax in dog at 2 mg/kg, po; format: ADME, organism-based, Canis lupus familiaris; design: dose 2 mg/kg, route oral; details: in vivo
[26] = Oral bioavailability in rat at 2 mg/kg, po; format: ADME, organism-based; details: in vivo
[27] = Cmax in mouse at 2 mg/kg, po; format: ADME, organism-based; design: dose 2 mg/kg, route oral; details: in vivo
[28] = target: Prostaglandin G/H synthase 1 (Homo sapiens, UniProt P23219); assay: Inhibition of COX1 in human whole blood; format: functional, tissue-based
Sequence of Prostaglandin G/H synthase 1 (P23219 whole entry): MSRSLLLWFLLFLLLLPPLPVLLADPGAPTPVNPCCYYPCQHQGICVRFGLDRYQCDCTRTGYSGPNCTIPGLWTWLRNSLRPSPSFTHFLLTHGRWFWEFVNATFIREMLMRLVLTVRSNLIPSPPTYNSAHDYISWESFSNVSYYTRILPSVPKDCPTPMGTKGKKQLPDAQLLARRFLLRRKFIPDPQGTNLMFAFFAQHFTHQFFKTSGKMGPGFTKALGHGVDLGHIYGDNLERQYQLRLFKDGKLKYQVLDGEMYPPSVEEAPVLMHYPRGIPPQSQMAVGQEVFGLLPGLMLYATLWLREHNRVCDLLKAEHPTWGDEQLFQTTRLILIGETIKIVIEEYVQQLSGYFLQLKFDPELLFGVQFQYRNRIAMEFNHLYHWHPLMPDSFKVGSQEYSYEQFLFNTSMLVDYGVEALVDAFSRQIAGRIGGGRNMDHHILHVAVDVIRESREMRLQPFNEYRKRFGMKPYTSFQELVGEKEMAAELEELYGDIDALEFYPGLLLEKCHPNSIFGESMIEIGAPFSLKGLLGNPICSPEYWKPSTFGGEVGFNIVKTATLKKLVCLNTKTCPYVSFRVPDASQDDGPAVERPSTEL

[29] = Volume of distribution in dog at 2 mg/kg, iv; format: ADME, organism-based, Canis lupus familiaris; design: dose 2 mg/kg, route intravenous; details: in vivo, read-out: Vdss
[30] = Tmax in rat at 2 mg/kg, po; format: ADME, organism-based; design: dose 2 mg/kg, route oral; details: in vivo
[31] = Tmax in mouse at 2 mg/kg, po; format: ADME, organism-based; design: dose 2 mg/kg, route oral; details: in vivo
[32] = Clearance in rat at 2 mg/kg, iv; format: ADME, organism-based; design: dose 2 mg/kg, route intravenous; details: in vivo
[33] = Volume of distribution in monkey at 2 mg/kg, iv; format: ADME, organism-based, Macaca mulatta; design: dose 2 mg/kg, route intravenous; details: rhesus monkey, in vivo, read-out: Vdss
[34] = Oral bioavailability in mouse at 2 mg/kg, po; format: ADME, organism-based; details: in vivo
[35] = Tmax in monkey at 2 mg/kg, po; format: ADME, organism-based, Macaca mulatta; design: dose 2 mg/kg, route oral; details: rhesus monkey, in vivo
[36] = Cmax in rat at 2 mg/kg, po; format: ADME, organism-based; design: dose 2 mg/kg, route oral; details: in vivo
[37] = Oral bioavailability in dog at 2 mg/kg, po; format: ADME, organism-based, Canis lupus familiaris; details: in vivo
[38] = Clearance in monkey at 2 mg/kg, iv; format: ADME, organism-based, Macaca mulatta; design: dose 2 mg/kg, route intravenous; details: rhesus monkey, in vivo

CC(C)(C(=O)O)c1ccc2c(c1)[nH]c1ccc(Cl)cc12
inhibition [1]: inactive | inhibition at 100 µM [2]: 40%

CC(C)Cc1ccc(C(C)C(=O)O)cc1 (stereo not drawn) [IBUPROFEN]
Kp [3]: 0.03 | inhibition [4]: 41% | Activity [5]: 11% | Activity [6]: 20% | concentration [7]: 18 µM | inhibition at 100 µM [2]: 28% | concentration [8]: 592 µM

COc1ccc2cc([C@H](C)C(=O)O)ccc2c1 [NAPROXEN]
Kp [3]: 0.03 | inhibition [9]: 3% | concentration [7]: 27 µM | concentration [8]: 887 µM

C[C@H](C(=O)O)c1ccc(-c2ccccc2)c(F)c1 [ESFLURBIPROFEN]
inhibition [10]: 37% | inhibition at 100 µM [2]: 65%

CC(C(=O)O)c1cccc(Oc2ccccc2)c1 (stereo not drawn) [FENOPROFEN]
Kp [3]: 0.03 | concentration [7]: 41 µM | concentration [8]: 1360 µM

CC(C)(C(=O)O)c1cccc(Oc2ccccc2)c1
inhibition [1]: inactive | inhibition at 100 µM [2]: 0%

COc1ccc2c(c1)c(C(C)(C)C(=O)O)c(C)n2C(=O)c1ccc(Cl)cc1
inhibition [1]: inactive | inhibition at 100 µM [2]: 2%

CSc1ccc(/C=C2/C(C)=C(CC(=O)O)c3cc(F)ccc32)cc1 [SULINDAC SULFIDE]
Kp [3]: 0.006 | inhibition at 40 µM [11]: 54% | concentration [7]: 1.7 µM | concentration [8]: 296 µM | inhibition [12]: 73%

C[C@@H](C(=O)O)c1ccc(-c2ccccc2)c(F)c1 [TARENFLURBIL]
Kp [3]: 0.04 | inhibition [10]: 23% | concentration [7]: 41 µM | inhibition at 100 µM [2]: 51% | concentration [8]: 1190 µM

Cc1cccc(Nc2ccccc2C(=O)O)c1C [MEFENAMIC ACID]
Kp [3]: 0.03 | concentration [7]: 2.7 µM | concentration [8]: 87 µM

COc1ccc2c(c1)c(CC(=O)O)c(C)n2C(=O)c1ccc(Cl)cc1 [INDOMETHACIN]
Kp [3]: 0.01 | inhibition [10]: 53% | concentration [7]: 3 µM | inhibition at 100 µM [2]: 73% | concentration [8]: 266 µM

O=C(O)Cc1ccccc1Nc1c(Cl)cccc1Cl
inhibition [10]: 17%

CC(C)Cc1ccc(C(C)(C)C(=O)O)cc1
inhibition [1]: inactive | inhibition at 100 µM [2]: 3%

CC(C)(C(=O)O)c1ccc(-c2ccccc2)c(F)c1
half-life [13]: 3.4 h | Vd [14]: 0.15 L/kg | Cmax [15]: 27.3 µM | clearance [16]: 0.7 mL/min/kg | bioavailability [17]: 90% | Activity [18]: inactive | Kp [3]: 0.02 | half-life [19]: 4.6 h | half-life [20]: 8 h | Vd [21]: 0.22 L/kg | half-life [22]: 11.3 h | Tmax [23]: 0.33 h | clearance [24]: 0.28 mL/min/kg | inhibition [1]: inactive | Cmax [25]: 76.4 µM | bioavailability [26]: 79% | Activity [5]: 13% | Cmax [27]: 24.4 µM | IC50 [28]: > 100 µM | Vd [29]: 0.11 L/kg | Activity [6]: 18% | Tmax [30]: 2 h | concentration [7]: 13 µM | Tmax [31]: 0.25 h | inhibition at 100 µM [2]: 67% | clearance [32]: 1.3 mL/min/kg | Vd [33]: 0.3 L/kg | bioavailability [34]: 81% | Tmax [35]: 0.25 h | Cmax [36]: 15.2 µM | concentration [8]: 849 µM | bioavailability [37]: 87% | clearance [38]: 3.8 mL/min/kg

CC(=O)Nc1ccc(O)cc1 [ACETAMINOPHEN]
Kp [3]: 0.68 | concentration [7]: 43 µM | concentration [8]: 64 µM

COc1ccc2cc(C(C)(C)C(=O)O)ccc2c1
inhibition [1]: inactive | inhibition at 100 µM [2]: 0%

CC1=C(CC(=O)O)c2cc(F)ccc2/C1=C\c1ccc(S(C)(=O)=O)cc1 [EXISULIND]
inhibition at 40 µM [11]: 0% | inhibition [12]: 9%
